Experimental data taken from ChEMBL document CHEMBL1156278, “Novel benzothiophene H1-antihistamines for the treatment of insomnia” (Bioorg Med Chem Lett, 2010).
Blank lines part the entries; values can stand above or below the molecule they belong to. The source made the active and inactive calls. The calls are words filed in the database; no cut-off is given here.

Key:
[1] = Ratio of drug level in rat brain to plasma at 30 mg/kg, po after 4 hrs; format: ADME, organism-based; design: dose 30 mg/kg, route oral
[2] = Bioavailability in human at 0.1 mg/kg by microdose study; format: ADME, organism-based; conditions: in vivo
[3] = Activity at P-glycoprotein
[4] = biological target: T1, Muscarinic acetylcholine receptor M1 (Homo sapiens, UniProt P11229); test: Displacement of [3H]N-methylscopolamine from human muscarinic M1 receptor expressed in CHO Flp-In cells after 90 mins by scintillation counting; format: cell-based
T1 sequence (P11229 whole entry): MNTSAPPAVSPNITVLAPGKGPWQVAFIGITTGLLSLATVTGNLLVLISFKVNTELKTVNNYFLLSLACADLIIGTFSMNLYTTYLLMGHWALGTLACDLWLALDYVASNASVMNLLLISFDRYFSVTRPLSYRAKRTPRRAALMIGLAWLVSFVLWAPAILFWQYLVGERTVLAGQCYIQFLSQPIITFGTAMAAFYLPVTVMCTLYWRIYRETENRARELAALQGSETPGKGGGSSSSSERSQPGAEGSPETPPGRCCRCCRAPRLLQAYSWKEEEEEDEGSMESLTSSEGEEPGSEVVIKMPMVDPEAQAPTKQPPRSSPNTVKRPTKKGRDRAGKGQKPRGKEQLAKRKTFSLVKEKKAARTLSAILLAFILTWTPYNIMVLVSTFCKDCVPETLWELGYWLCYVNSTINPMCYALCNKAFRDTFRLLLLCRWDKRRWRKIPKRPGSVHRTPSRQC

[5] = AUC (0 to t) in human at 0.1 mg/kg, po by microdose study; format: ADME, organism-based; design: dose 0.1 mg/kg, route oral; conditions: plasma
Cytochrome P450 3A4 = Cytochrome P450 3A4 (Homo sapiens, UniProt P08684); test: Inhibition of recombinant CYP3A4 after 30 mins by fluorescence assay
[6] = biological target: T2, Voltage-gated inwardly rectifying potassium channel KCNH2 (Homo sapiens, UniProt Q12809); test: Displacement of [3H]Dofetilide from human ERG
[7] = Systemic clearance in human at 0.1 mg/kg, iv by microdose study; format: ADME, organism-based; design: dose 0.1 mg/kg, route intravenous; conditions: in vivo
[8] = Drug level in rat plasma at 30 mg/kg, po after 4 hrs; format: ADME, organism-based; design: dose 30 mg/kg, route oral
[9] = Apparent permeability across human Caco-2 cells; format: ADME, cell-based
[10] = Drug level in rat brain at 30 mg/kg, po after 4 hrs; format: ADME, organism-based; design: dose 30 mg/kg, route oral; conditions: read-out: Drug uptake
[11] = biological target: T2, Voltage-gated inwardly rectifying potassium channel KCNH2; test: Inhibition of human ERG expressed in HEK cells assessed as blockade of potassium tail current by standard patch clamp analysis
[12] = Half life in human at 0.1 mg/kg by microdose study; format: ADME, organism-based; design: dose 0.1 mg/kg; conditions: in vivo
Histamine H1 receptor = Histamine H1 receptor (Homo sapiens, UniProt P35367); test: Displacement of [3H]pyrilamine from human histamine H1 receptor expressed in CHO Flp-In cells after 90 mins by scintillation counting; format: cell-based; conditions: read-out: Ki
Caco-2 = test: Ratio of permeability from apical to basolateral side over basolateral to apical side in human Caco-2 cells
Cytochrome P450 2D6 = Cytochrome P450 2D6 (Homo sapiens, UniProt P10635); test: Inhibition of recombinant CYP2D6 after 30 mins by fluorescence assay
Rattus norvegicus [13] = test: Effect on sleep-awake pattern in CD IGS rat model of insomnia assessed as latency to REM sleep at 30 mg/kg, po by EEG/EMG study relative to control; format: functional
Rattus norvegicus [14] = test: Effect on sleep-awake pattern in CD IGS rat model of insomnia assessed as longest 3 NREM bouts at 60 mg/kg, po after 6 hrs by EEG/EMG study relative to control; format: functional
Rattus norvegicus [15] = test: Increase in REM sleep in CD IGS rat model of insomnia at 60 mg/kg, po after 4 hrs by EEG/EMG study relative to control; format: functional
Rattus norvegicus [16] = test: Effect on sleep-awake pattern in CD IGS rat model of insomnia assessed as latency to NREM sleep at 60 mg/kg, po by EEG/EMG study relative to control; format: functional
[17] = Volume of distribution at steady state in human at 0.1 mg/kg by microdose study; format: ADME, organism-based; design: dose 0.1 mg/kg; conditions: in vivo, read-out: Vdss
Rattus norvegicus [18] = test: Effect on sleep-awake pattern in CD IGS rat model of insomnia assessed as longest 3 REM bouts at 30 mg/kg, po after 6 hrs by EEG/EMG study relative to control; format: functional
Rattus norvegicus [19] = test: Effect on sleep-awake pattern in CD IGS rat model of insomnia assessed as longest 3 REM bouts at 60 mg/kg, po after 6 hrs by EEG/EMG study relative to control; format: functional
Rattus norvegicus [20] = test: Effect on sleep-awake pattern in CD IGS rat model of insomnia assessed as longest 3 NREM bouts at 30 mg/kg, po after 6 hrs by EEG/EMG study relative to control; format: functional
Rattus norvegicus [21] = test: Increase in NREM sleep in CD IGS rat model of insomnia at 60 mg/kg, po after 4 hrs by EEG/EMG study relative to control; format: functional
Rattus norvegicus [22] = test: Effect on sleep-awake pattern in CD IGS rat model of insomnia assessed as latency to NREM sleep at 30 mg/kg, po by EEG/EMG study relative to control; format: functional
Rattus norvegicus [23] = test: Effect on sleep-awake pattern in CD IGS rat model of insomnia assessed as latency to REM sleep at 60 mg/kg, po by EEG/EMG study relative to control; format: functional
Rattus norvegicus [24] = test: Increase in NREM sleep in CD IGS rat model of insomnia at 30 mg/kg, po after 4 hrs by EEG/EMG study relative to control; format: functional
Rattus norvegicus [25] = test: Increase in REM sleep in CD IGS rat model of insomnia at 30 mg/kg, po after 4 hrs by EEG/EMG study relative to control; format: functional

Cytochrome P450 3A4, sequence (P08684 whole entry): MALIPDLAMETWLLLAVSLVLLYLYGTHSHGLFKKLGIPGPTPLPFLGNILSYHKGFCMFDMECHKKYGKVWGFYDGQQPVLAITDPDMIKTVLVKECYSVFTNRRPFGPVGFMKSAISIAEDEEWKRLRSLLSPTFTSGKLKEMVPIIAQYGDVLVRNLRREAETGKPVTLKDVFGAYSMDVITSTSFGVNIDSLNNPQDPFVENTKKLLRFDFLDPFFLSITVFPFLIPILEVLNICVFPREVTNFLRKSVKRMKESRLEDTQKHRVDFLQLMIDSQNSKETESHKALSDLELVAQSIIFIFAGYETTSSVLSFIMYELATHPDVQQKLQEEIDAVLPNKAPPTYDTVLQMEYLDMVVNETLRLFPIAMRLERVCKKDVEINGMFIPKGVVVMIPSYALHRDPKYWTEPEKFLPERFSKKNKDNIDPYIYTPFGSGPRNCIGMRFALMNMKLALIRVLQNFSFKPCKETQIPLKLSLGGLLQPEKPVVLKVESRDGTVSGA
Cytochrome P450 2D6, sequence (P10635 whole entry): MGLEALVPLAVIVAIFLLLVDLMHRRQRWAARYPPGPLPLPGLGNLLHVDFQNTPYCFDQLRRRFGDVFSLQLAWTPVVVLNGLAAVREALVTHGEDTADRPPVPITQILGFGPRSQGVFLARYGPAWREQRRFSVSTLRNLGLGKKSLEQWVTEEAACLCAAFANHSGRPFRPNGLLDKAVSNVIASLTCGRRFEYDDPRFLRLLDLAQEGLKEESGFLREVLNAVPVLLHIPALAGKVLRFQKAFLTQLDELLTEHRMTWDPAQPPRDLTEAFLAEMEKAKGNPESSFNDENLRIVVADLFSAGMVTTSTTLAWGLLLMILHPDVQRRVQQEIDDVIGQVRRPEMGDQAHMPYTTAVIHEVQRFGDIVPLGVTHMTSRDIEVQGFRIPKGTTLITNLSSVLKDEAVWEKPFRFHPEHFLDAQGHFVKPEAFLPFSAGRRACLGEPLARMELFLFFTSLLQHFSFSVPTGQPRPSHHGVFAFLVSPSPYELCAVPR
Histamine H1 receptor, sequence (P35367 whole entry): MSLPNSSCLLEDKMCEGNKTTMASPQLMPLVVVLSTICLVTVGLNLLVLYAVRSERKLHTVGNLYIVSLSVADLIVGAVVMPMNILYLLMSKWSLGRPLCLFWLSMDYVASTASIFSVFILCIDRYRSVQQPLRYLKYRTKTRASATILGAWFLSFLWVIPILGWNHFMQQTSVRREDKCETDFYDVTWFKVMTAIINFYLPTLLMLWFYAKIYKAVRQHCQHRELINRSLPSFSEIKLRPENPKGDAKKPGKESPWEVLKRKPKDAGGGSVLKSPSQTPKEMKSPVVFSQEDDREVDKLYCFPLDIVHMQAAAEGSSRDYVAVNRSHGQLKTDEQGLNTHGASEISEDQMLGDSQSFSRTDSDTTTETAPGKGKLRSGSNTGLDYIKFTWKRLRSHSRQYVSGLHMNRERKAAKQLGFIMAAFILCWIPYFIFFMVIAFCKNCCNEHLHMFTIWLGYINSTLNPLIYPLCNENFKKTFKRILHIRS
T2 sequence (Q12809 whole entry): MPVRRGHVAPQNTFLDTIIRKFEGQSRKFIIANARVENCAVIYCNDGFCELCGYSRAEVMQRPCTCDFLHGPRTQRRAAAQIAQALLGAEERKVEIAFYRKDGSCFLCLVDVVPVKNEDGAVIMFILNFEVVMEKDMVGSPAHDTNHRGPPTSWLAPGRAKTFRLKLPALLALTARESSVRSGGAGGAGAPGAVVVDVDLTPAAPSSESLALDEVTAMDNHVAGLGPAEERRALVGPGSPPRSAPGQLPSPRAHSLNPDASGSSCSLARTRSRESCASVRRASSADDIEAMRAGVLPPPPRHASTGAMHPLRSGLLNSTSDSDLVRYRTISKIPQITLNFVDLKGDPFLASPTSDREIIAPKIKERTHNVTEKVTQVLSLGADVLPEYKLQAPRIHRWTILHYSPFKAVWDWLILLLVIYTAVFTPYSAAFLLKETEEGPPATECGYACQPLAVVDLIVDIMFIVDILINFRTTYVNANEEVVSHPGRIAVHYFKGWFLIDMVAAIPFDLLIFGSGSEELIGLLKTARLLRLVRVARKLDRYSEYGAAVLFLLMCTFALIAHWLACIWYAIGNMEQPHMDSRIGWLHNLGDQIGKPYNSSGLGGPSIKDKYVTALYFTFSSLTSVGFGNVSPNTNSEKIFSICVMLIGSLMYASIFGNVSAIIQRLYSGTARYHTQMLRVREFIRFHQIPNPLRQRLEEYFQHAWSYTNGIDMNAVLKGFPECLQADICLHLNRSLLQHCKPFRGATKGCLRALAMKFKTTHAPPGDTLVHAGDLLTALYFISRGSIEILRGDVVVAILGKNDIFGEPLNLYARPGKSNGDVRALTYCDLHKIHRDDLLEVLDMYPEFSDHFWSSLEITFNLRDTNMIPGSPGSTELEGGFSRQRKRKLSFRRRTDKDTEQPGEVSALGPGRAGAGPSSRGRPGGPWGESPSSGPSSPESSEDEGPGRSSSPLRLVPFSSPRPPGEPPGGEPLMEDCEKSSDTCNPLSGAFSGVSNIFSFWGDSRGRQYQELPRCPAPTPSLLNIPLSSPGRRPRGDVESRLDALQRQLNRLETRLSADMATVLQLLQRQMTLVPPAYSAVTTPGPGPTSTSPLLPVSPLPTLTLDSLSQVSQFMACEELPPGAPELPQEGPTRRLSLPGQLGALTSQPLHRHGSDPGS

Kp at 4 h ([1]; read-out: Ratio): 8
bioavailability [2]: 47%
Activity [3]: inactive
Ki [4]: 5.3 µM
AUC(0-t) [5]: 2.78 ng·h/mL
IC50 (Cytochrome P450 3A4): > 10 µM
clearance [7]: 6.2 mL/min/kg
concentration at 4 h [8]: 2.8 ng/mL
Papp [9]: > 21.7 ×10⁻⁶ cm/s
concentration at 4 h [10]: 23 ng/g
half-life [12]: 6.8 h
Ki (Histamine H1 receptor): 0.004 µM
Ratio (Caco-2): > 0.7
SMILES: C[C@@H](c1ccccn1)c1c(CCN(C)C)sc2ccccc12
Ki [6]: > 5 µM
IC50 [11]: 1.4 µM

Ki ([4]; read-out: Ki): > 10 µM
IC50 (Cytochrome P450 3A4): > 10 µM
Ki (Histamine H1 receptor): 0.013 µM
IC50 (Cytochrome P450 2D6): > 10 µM
SMILES: C[C@@H](c1ccc(F)cn1)c1c(CCN(C)C)sc2ccccc12
Ki [6]: 2.5 µM
IC50 [11]: 0.24 µM

Ki [4]: 3.7 µM
IC50 (Cytochrome P450 3A4): > 10 µM
Ki (Histamine H1 receptor): 0.032 µM
IC50 (Cytochrome P450 2D6): 9.8 µM
SMILES: CNCCc1sc2ccccc2c1[C@@H](C)c1ccccn1
Ki [6]: > 5 µM
IC50 [11]: 6.5 µM

Ki ([4]; read-out: Ki): 2.2 µM
IC50 (Cytochrome P450 3A4): > 10 µM
Ki (Histamine H1 receptor): 0.0027 µM
IC50 (Cytochrome P450 2D6): 4 µM
SMILES: C[C@@H](c1ncccc1F)c1c(CCN(C)C)sc2ccccc12
Ki [6]: > 5 µM
IC50 [11]: 0.33 µM

Ki ([4]; read-out: Ki): > 10 µM
IC50 (Cytochrome P450 3A4): > 10 µM
Ki (Histamine H1 receptor): 0.059 µM
SMILES: COc1cccc(C(C)c2c(CCN(C)C)sc3ccccc23)n1 (racemic)
Ki [6]: > 5 µM

Ki ([4]; read-out: Ki): > 10 µM
IC50 (Cytochrome P450 3A4): > 10 µM
Ki (Histamine H1 receptor): 0.005 µM
IC50 (Cytochrome P450 2D6): 9.5 µM
SMILES: COc1cccnc1[C@H](C)c1c(CCN(C)C)sc2ccccc12
Ki [6]: > 5 µM
IC50 [11]: 3 µM

Ki ([4]; read-out: Ki): > 10 µM
IC50 (Cytochrome P450 3A4): > 10 µM
Ki (Histamine H1 receptor): 0.0093 µM
SMILES: Cc1cccnc1[C@H](C)c1c(CCN(C)C)sc2ccccc12

Ki ([4]; read-out: Ki): > 10 µM
IC50 (Cytochrome P450 3A4): > 10 µM
Ki (Histamine H1 receptor): 0.038 µM
SMILES: CC(c1cccc(F)n1)c1c(CCN(C)C)sc2ccccc12 (racemic)
Ki [6]: > 5 µM

Ki ([4]; read-out: Ki): 2.07 µM
IC50 (Cytochrome P450 3A4): > 10 µM
Ki (Histamine H1 receptor): 0.035 µM
SMILES: CC(c1nccs1)c1c(CCN(C)C)sc2ccccc12 (racemic)
Ki [6]: > 5 µM

SMILES: C[C@H](c1cccnc1F)c1c(CCN(C)C)sc2ccccc12
Activity (Rattus norvegicus [13]): 49 min
Activity (Rattus norvegicus [14]): 6.7 min
Kp at 4 h ([1]; read-out: Ratio): 26
bioavailability [2]: 23%
Activity (Rattus norvegicus [15]): 6.6%
Activity [3]: inactive
Ki ([4]; read-out: Ki): > 10 µM
AUC(0-t) [5]: 0.64 ng·h/mL
Activity (Rattus norvegicus [16]): 45 min
Vd [17]: 5.6 L/kg
Activity (Rattus norvegicus [18]): 2.1 min
Activity (Rattus norvegicus [19]): 2.2 min
Activity (Rattus norvegicus [20]): 5.8 min
clearance [7]: 12.1 mL/min/kg
Activity (Rattus norvegicus [21]): 32%
concentration at 4 h [8]: 3 ng/mL
Activity (Rattus norvegicus [22]): 33 min
Papp [9]: > 21.7 ×10⁻⁶ cm/s
concentration at 4 h [10]: 83 ng/g
half-life [12]: 13 h
Ki (Histamine H1 receptor): 0.0017 µM
Activity (Rattus norvegicus [23]): 64 min
Activity (Rattus norvegicus [24]): 27.4%
Activity (Rattus norvegicus [25]): 6.4%

SMILES: C[C@@H](c1ncccc1Cl)c1c(CCN(C)C)sc2ccccc12
Ki ([4]; read-out: Ki): > 10 µM
IC50 (Cytochrome P450 3A4): > 10 µM
Ki [6]: > 5 µM
Ki (Histamine H1 receptor): 0.008 µM
IC50 (Cytochrome P450 2D6): 1.5 µM

Ki ([4]; read-out: Ki): > 10 µM
IC50 (Cytochrome P450 3A4): > 10 µM
Ki (Histamine H1 receptor): 0.12 µM
SMILES: COc1ccc(C(C)c2c(CCN(C)C)sc3ccccc23)cn1 (racemic)
Ki [6]: > 5 µM

IC50 (Cytochrome P450 3A4): 5.2 µM
Ki (Histamine H1 receptor): 0.122 µM
SMILES: CC(c1c(CCN(C)C)sc2ccccc12)n1ccnc1 (racemic)
Ki [6]: > 5 µM

SMILES: C[C@H](c1c(CCN(C)C)sc2ccccc12)n1cccn1
Kp at 4 h ([1]; read-out: BPR): 20
Activity [3]: inactive
Ki ([4]; read-out: Ki): > 10 µM
IC50 (Cytochrome P450 3A4): > 10 µM
Ki [6]: > 5 µM
concentration at 4 h [8]: 0.6 ng/mL
Papp [9]: > 21.7 ×10⁻⁶ cm/s
concentration at 4 h [10]: 11 ng/g
IC50 [11]: 2 µM
Ki (Histamine H1 receptor): 0.0044 µM
Ratio (Caco-2): > 0.7
